From patent publication US20080176787A1, “Parathyroid hormone analogues and methods of use” (priority 2005, published 2008)
Positions of bridges follow the written chain, without caps; N, C: chain ends. Residues, ends and D or L forms follow the SMILES beside them.

Key:
[1] = tested on: post-menopausal women with low bone mineral density; assay: Phase II clinical study of subcutaneous Ostabolin-C in post-menopausal women with low BMD (BMD, bone markers, serum calcium, side effects)
Source text: A four month Phase II clinical study was undertaken to investigate the safety, tolerability and efficacy of Ostabolin-C™ in post-menopausal women with low bone mineral density (BMD). […] The clinical protocol is a 16-week phase II randomized, double-blind, placebo-controlled, parallel group, dose finding study to investigate the safety, tolerability and efficacy of Ostabolin-C™ in post-menopausal women with low bone mineral density (BMD). In this study, 261 patients underwent four months of daily dosing of placebo and four active groups. The active groups included daily administration of Ostabolin-C™ in doses of 7.5, 15, 30, and 45 μg. Ostabolin-C™ is formulated as a clear, colorless liquid provided in pre-filled syringes and injected subcutaneously (SC). Subjects self-administer SC 0.1 mL injections of their assigned dose of Ostabolin-C™ 7.5, 15, 30, and 45 μg or placebo daily for 16 weeks in rotating quadrants of the abdomen. The subjects were post-menopausal women (for at least 5 years) with moderate osteoporosis.
The key endpoints for the study include change in mean BMD at the lumbar spine, as assessed by dual energy x-ray absorptiometry (DEXA), and measured by change from the Baseline visit. The Baseline visit is the first visit of the patient, before undergoing any treatment. Secondary efficacy endpoints include the following, as measured by change from Baseline visit:
DEXA: Bone formation and resorption markers: • Mean femoral neck BMD • Serum osteocalcin • Mean trochanter BMD • Serum amino terminal pro-peptide of type 1 pro-collagen (P1NP) • Mean total hip BMD • Mean radial BMD (distal and midshaft) • Bone specific alkaline phosphatase (BSAP) • Bone mineral content (BMC) • Serum C-telopeptide (CTx) • Bone area • Serum N-telopeptide (NTx)

[2] = tested on: gonad-intact cynomolgus monkeys; assay: 52-week (12 months) daily subcutaneous study in gonad-intact young cynomolgus monkeys: bone mass, histomorphometry, % cortical porosity; format: in vivo
Method: The peptide [Leu^27]cyclo[Glu^22-Lys^26]-hPTH-(1-31)-NH2 Ostabolin-C™ was administered daily by subcutaneous injection to gonad-intact cynomolgus monkeys (4/sex/group) at dose levels of 0, 2, 10 and 25 μg/kg for 52 weeks. Monkeys were 30 to 40 months of age (2.3-3.5 kg) at treatment start. Tibiae were retained for histomorphometry following labeling with calcein green 15 and 5 days prior to euthanasia. Bone mass, as measured by DXA (dual-energy x-ray absorptiometry) and QCT (quantitative computed tomography), was increased at the lumbar spine, femur and tibia. Changes in vertebral BMD (bone mineral density) translated into significant increases in bone strength. […] Tibial cancellous bone volume increased by more than 50% in all the peptide [Leu^27]cyclo[Glu^22-Lys^26]-hPTH-(1-31)-NH2 treated groups compared to controls and in the tibial mid-diaphysis, increases in cortical width and relative cortical area with concurrent decreases in medullary area were observed. […] Increases in indices of bone formation were associated with decreases in indices of bone resorption (decreased bone resorption markers, decreased osteoclast surface area, minimal cortical porosity), consistent with the uncoupling of these events. This combination of anabolic and anti-catabolic actions may have significant therapeutic value in the treatment of osteoporosis.
Comparative data regarding increase in cortical bone porosity in monkey subjects using Ostabolin C at a variety of doses and using the prior art PTHs 1-34 is shown below.

[3] = tested on: post-menopausal women with low bone mineral density; assay: Dose/weight cutoff subgroup analysis and modeling of Phase II 30 and 45 μg cohorts; format: in vivo, human; parameters: Mean LS-BMD / FN-BMD / TH-BMD / P1NP / CTx: unit not given here
Method: The effect of the dose optimization strategy was evaluated by performing subgroup analyses using actual data from the 30 and 45 μg cohorts of the study (i.e. creation of a new subgroup by combining all patients below the weight cutoff from the 30 μg dose group with all patients above the weight cutoff from the 45 μg dose group, shown in the table below).
A variety of new subgroups were created out of the patients who participated in the Phase II clinical trial. The groups from Phase II are shown above, where each group received a single dose, either 7.5 μg, 15 μg, 30 μg, 45 μg, or placebo. The 30 μg and 45 μg dose groups were re-grouped, according to the weight of the patient, and over 100 new sub-groups were created. This approach of creating new sub-groups out of dosages which are relatively close to each other, is a novel way of conducting Phase II studies.
For the 105 patients who were originally given 30 or 45 μg, new groups were created by utilizing multiple weight cut-offs in increments of 0.5 kg. For example, one new group had the weight cut-off at 59 kg, meaning that every patient from the original low dose (30 μg) group who weighed less than 59 kg and every patient who weighed more than 59 kg from the original high dose (45 μg) group formed a new cohort. This new cohort represents a dose/weight cut-off of 59 kg, a group in which patients weighing less than 59 kg receive the low dose (30 μg) and patients weighing more than 59 kg receive the high dose (45 μg). Another example can be illustrated using a weight cutoff of 68 kg. Such a group would include all those patients who weigh less than 68 kg and who originally received the low dose (30 μg) as well as all those patients who weigh more than 68 kg and who originally received the high dose (45 μg). By using this method, over 100 separate cohorts were created by altering the dose/weight cut-off in increments of 0.5 kg. A summary of the data generated by these new dose/weight cut-off cohorts, using 68 kg and 59 kg as the dose/weight cut-off, is shown in the table below.
The table above illustrates the actual clinical profile obtained for two dose/weight cutoffs (59 kg which produces a higher exposure profile since more patients receive the higher dose and 68 kg in which more patients receive the lower dose). […] One problem with simple subgroup analysis is that endpoints with a small number of events can skew the observed profile because of large changes in incidence when one of these events moves from one side of the weight cutoff to the other. Therefore, the dose/weight cutoff methodology was applied systematically to the data from the 30 and 45 μg dose groups starting at the lowest weight patient in the study (corresponds to the 45 μg profile because everyone receives the high dose) and increasing the cutoff by 0.5 kg increments through 100 kg (corresponding to the 30 μg profile because everyone receives the low dose). The multiple cutoff profiles thus obtained when graphed can then smooth out the effect of individual events as illustrated for the effect on hypercalcemia. The effect of weight cutoff on clinical profile can then be modeled to eliminate the skewing effects of individual data points as illustrated in FIG. 37-40. This approach has been applied to primary and secondary endpoints in the study.
An important benefit of this modeling is that it is possible to project a clinical profile for a specific weight cutoff/dose exposure window with a high degree of accuracy since the effect of individual events is eliminated. The anticipated hypercalcemia and lumbar spine BMD profile for a 68 kg cutoff is illustrated in the table below, which compares the modeled hypercalcemia and lumbar spine BMD changes and the actual Phase II data for the 68 kg weight cutoff. It will also be possible to model the effects of even narrower exposure windows by using multiple dose cutoffs and different doses.

rats = assay: Rat oncogenicity study, 104 weeks subcutaneous; format: in vivo; details: 0.5, 5, 30, and 50 μg/kg/day SC
Method: Prior art PTHs cause osteosarcomas in animals if administered over a course of two years. The PTH peptides of the present invention, including Ostabolin-C™ and PTH 1-30, are administered subcutaneously to rats for 104 weeks at doses of 0.5, 5, 30, and 50 μg/kg/day. The test article is administered subcutaneously. […] This difference could be due to the different amino acids sequences and/or to the different signalling pathways activated by the PTH molecules.

## CC[C@H](C)[C@H](NC(=O)[C@H](CCC(=O)O)NC(=O)[C@H](CO)NC(=O)[C@@H](NC(=O)[C@@H](N)CO)C(C)C)C(=O)N[C@@H](CCC(N)=O)C(=O)N[C@@H](CC(C)C)C(=O)N[C@@H](CCSC)C(=O)N[C@@H](Cc1c[nH]cn1)C(=O)N[C@@H](CC(N)=O)C(=O)N[C@@H](CC(C)C)C(=O)NCC(=O)N[C@@H](CCCCN)C(=O)N[C@@H](Cc1c[nH]cn1)C(=O)N[C@@H](CC(C)C)C(=O)N[C@@H](CC(N)=O)C(=O)N[C@@H](CO)C(=O)N[C@@H](CCSC)C(=O)N[C@@H](CCC(=O)O)C(=O)N[C@@H](CCCNC(=N)N)C(=O)N[C@H](C(=O)N[C@H]1CCC(=O)NCCCC[C@@H](C(=O)N[C@@H](CC(C)C)C(=O)N[C@@H](CC(C)C)C(=O)N[C@@H](CCC(N)=O)C(=O)N[C@@H](CC(=O)O)C(=O)N[C@H](C(N)=O)C(C)C)NC(=O)[C@H](CCCNC(=N)N)NC(=O)[C@H](CC(C)C)NC(=O)[C@H](Cc2c[nH]c3ccccc23)NC1=O)C(C)C [Ostabolin-C, [Leu^27]cyclo[Glu^22-Lys^26]-PTH-(1-31)-NH2] (H-SVSEIQLMHNLGKHLNSMERVEWLRKLLQDV-NH2; lactam 22-26)
[1]; 30 μg
  bone resorption stimulation as % of expected effect of 20 μg Forteo: approximately 50%
[1]; 30 μg (4 months)
  CTx: 1400 pM/L
  FN-BMD (%): −0.05%
  LS-BMD (%): 3.6%
  LS-BMD (%), subset with LS-BMD T score < −2.5: 4.51%
  P1NP: 50.0 µg/L
  TH-BMD (%): 0.06%
[1]; 30 ug, 4 months
  CTx: 30.6
  FN-BMD: −0.06
  LS-BMD 3%: 59.6
  LS-BMD 6%: 19.1
  Mean LS-BMD: 3.72
  P1NP: 117.2
  TH-BMD: 0.07
[1]; 45 μg
  BMD in the lumbar spine: increase in BMD
[1]; 45 μg (4 months)
  CTx: 2900 pM/L
  FN-BMD (%): 2.75%
  LS-BMD (%): 5.2%
  LS-BMD (%), subset with LS-BMD T score < −2.5: 5.9%
  P1NP: 79.5 µg/L
  TH-BMD (%): 1.45%
[1]; 45 μg For 15 Weeks
  Mean % Change In Femoral Neck (BMD): 2.75%
  Mean % Change In Total Hip (BMD): 1.44%
  Mean % Change In Trochanter (BMD): 2.24%
[1]; 45 ug, 4 months
  CTx: 60.3
  FN-BMD: 3.0
  LS-BMD 3%: 79.5
  LS-BMD 6%: 36.4
  Mean LS-BMD: 5.59
  P1NP: 160.5
  TH-BMD: 1.6
[1]; 7.5, 15, and 30 μg
  cortical BMD in distal and mid-shaft radius compared to placebo and Forteo: increases cortical BMD
[1]; 7.5, 15, and 30 μg daily, 15 weeks
  lumbar spine BMD: increase in lumbar spine BMD
[1]; low doses, 15 weeks
  hip, femoral neck, and trochanter BMD: mild BMD increase
[2]; 2, 10, 25 μg/kg SC daily, 52 weeks
  Bone mass (DXA, QCT) at lumbar spine, femur and tibia: increased
[2]; 52 weeks
  osteoclast surface: significant reduction
[2]; all treated groups (2, 10, 25 μg/kg SC daily, 52 weeks)
  Tibial cancellous bone volume increase compared to controls: more than 50%
[3]; 59 kg cut
  CTx: 57.5
  FN-BMD: 1.5
  LS-BMD 3%: 80.8
  LS-BMD 6%: 28.8
  P1NP: 143.5
  TH-BMD: 0.69
[3]; 59 kg cut (30 μg below, 45 μg above)
  Mean LS-BMD: 4.95
[3]; 68 kg cut
  CTx: 32.1
  FN-BMD: 0.29
  LS-BMD 3%: 78.0
  LS-BMD 6%: 29.3
  P1NP: 132.1
  TH-BMD: 0.40
[3]; 68 kg cut (30 μg below, 45 μg above)
  Mean LS-BMD: 4.65
[3]; 68 kg cutoff, modeled
  LS-BMD 3%: 76.5
  Mean LS-BMD: 4.57

## PTH(1-30) (SVSEIQLMHNLGKHLNSMERVEWLRKKLQD; Parathyroid hormone; UniProt P01270 32-61, looked up, fragment) [PTH 1-30]
rats
  incidence of osteosarcomas compared to prior art PTH peptides: lower incidences of osteosarcomas
